Consider two compounds from patent US20140186427A1, “ORODISPERSIBLE FILMS FOR THE MANUFACTURING OF INDIVIDUALISED MEDICINE OR FOR LARGE SCALE PRODUCTION” (TESA LABTEC GMBH, priority 2011, published 2014).

Data set [1] can be described thus: Solubility of the API in the ink (Klucel EX, brilliant blue, ethanol). Format: physicochemical. Particulars: brilliant blue and ethanol. From the text: The ingredients of the ink were Klucel® EX (hydroxypropylcellulose, Ashland, USA), brilliant blue and ethanol.
Data set [2] can be described thus: Recrystallisation after printing: polarised microscopy and X-ray diffraction. Format: physicochemical. The following applies: printed ODF. From the text:
X-ray diffractograms were collected for the drug-free film, the APIs and the ODFs after the fourth printing process using […], Netherland). Polarised micrographs and scanning electron micrographs were collected for the drug-free film and the ODFs after the fourth printing process using a DMLB microscope (Leica Microsystems, Cambridge, UK) and a LEO 1430 VP (Leo Elektron Microscopy, Cambridge, UK).

Structures are written as SMILES. Where a name gives a salt, the structure may show the parent alone.

With `C#CCN[C@@H]1CCc2ccccc21` [Rasagiline mesylate], the “Solubility in the ink” value in data set [1] is “soluble in the ink”. Further, the “Recrystallisation / crystals after the printing process” value in data set [2] is “did not recrystallise”.

With `CN1CC(=O)N2[C@H](c3ccc4c(c3)OCO4)c3[nH]c4ccccc4c3C[C@@H]2C1=O` [Tadalafil], in data set [1], the “Solubility in the ink” value is given as “forms an ink-suspension”.
